Data taken from patent USRE39591E1, “6-O-substituted ketolides having antibacterial activity” (Abbott Laboratories, priority 1996, dated 2007).
Values after ≈ are worked out from the molar mass of the structure shown.

Tested on: up to 32 different microorganisms
Experiment: in vitro antibacterial activity (MIC), agar dilution on Brain Heart Infusion (BHI) agar with Steers replicator
Type: cell-based
Details: unit assumed
Summary of the method: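 Erythromycin A served as the same-class reference for test-to-test comparability. Test compound was tested over twelve successive dilutions in BHI agar; plates were incubated 20 to 24 hours at 35°-37° C, with MIC taken as the lowest concentration showing no growth, slight haze, or sparse colonies.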

CC[C@H]1OC(=O)[C@H](C)C(=O)[C@H](C)[C@@H](O[C@@H]2O[C@H](C)C[C@H](N(C)C)[C@H]2O)[C@@](C)(OCC(=O)c2ccc(F)cc2)C[C@@H](C)C(=O)[C@H](C)[C@H]2NC(=O)O[C@@]21C [Example 240, Compound of Formula (IX): L is CO, T is NH, R is —CH2C(O)-(4-F-phenyl)]
MIC (organism code AA): 3.1 µg/mL | MIC (organism code BB): 3.1 µg/mL | MIC (organism code CC): > 100 µg/mL | MIC (organism code DD): 6.2 µg/mL | MIC (organism code EE): 3.1 µg/mL | MIC (organism code FF): 3.1 µg/mL | MIC (organism code GG): > 100 µg/mL | MIC (organism code HH): 3.1 µg/mL | MIC (organism code II): 0.78 µg/mL | MIC (organism code JJ): 0.39 µg/mL | MIC (organism code KK): 0.39 µg/mL | MIC (organism code LL): 0.39 µg/mL | MIC (organism code MM): > 100 µg/mL | MIC (organism code NN): 0.78 µg/mL | MIC (organism code OO): 0.39 µg/mL | MIC (organism code PP): 1.56 µg/mL | MIC (organism code QQ): > 100 µg/mL | MIC (organism code RR): 3.1 µg/mL | MIC (organism code SS): > 100 µg/mL | MIC (organism code TT): > 100 µg/mL | MIC (organism code UU): 6.2 µg/mL | MIC (organism code VV): 1.56 µg/mL | MIC (organism code WW): 32 µg/mL | MIC (organism code XX): 0.25 µg/mL | MIC (organism code YY): 0.25 µg/mL | MIC (organism code ZZ): > 128 µg/mL | MIC (organism code ZZA): 1 µg/mL

CCC1OC(=O)C(C)C(=O)C(C)C(OC2OC(C)CC(N(C)C)C2O)C(C)(OCC=Cc2ccc3c(c2)OCO3)CC(C)C(=O)C(C)C2NC(=O)OC12C (stereo not drawn) [Example 188, R is —CH2CH═CH-(3,4-methylenedioxyphenyl)]
MIC (Candida albicans CCH 442 (code TT)): > 100 µg/mL | MIC (Enterococcus faecism ATCC 8043 (code II)): 0.05 µg/mL (≈ 0.0659 µM) | MIC (Escherichia coli DC-2 (code SS)): > 100 µg/mL | MIC (Escherichia coli JUHL (code QQ)): > 100 µg/mL | MIC (Escherichia coli SS (code RR)): 0.78 µg/mL (≈ 1.03 µM) | MIC (Haemophilis influenzae DILL AMP R (code WW)): 8 µg/mL (≈ 10.5 µM) | MIC (Micrococcus luteus ATCC 4698 (code PP)): 0.2 µg/mL (≈ 0.264 µM) | MIC (Micrococcus luteus ATCC 9341 (code OO)): 0.02 µg/mL (≈ 0.0264 µM) | MIC (Mycobacterium smegmatis ATCC 114 (code UU)): 0.78 µg/mL (≈ 1.03 µM) | MIC (Nocardia Asteroides ATCC9970 (code VV)): 0.39 µg/mL (≈ 0.514 µM) | MIC (Staphylococcus aureus 1775 (code GG)): > 100 µg/mL | MIC (Staphylococcus aureus A5177 (code BB)): 0.1 µg/mL (≈ 0.132 µM) | MIC (Staphylococcus aureus A-5278 (code CC)): > 100 µg/mL | MIC (Staphylococcus aureus ATCC 6538P (code AA)): 0.1 µg/mL (≈ 0.132 µM) | MIC (Staphylococcus aureus CMX 553 (code FF)): 0.1 µg/mL (≈ 0.132 µM) | MIC (Staphylococcus aureus CMX 642A (code DD)): 0.1 µg/mL (≈ 0.132 µM) | MIC (Staphylococcus aureus NCTC10649M (code EE)): 0.2 µg/mL (≈ 0.264 µM) | MIC (Staphylococcus epidermidis 3519 (code HH)): 0.2 µg/mL (≈ 0.264 µM) | MIC (Streptococcus Pneumonia 5649 (code ZZA)): 1 µg/mL (≈ 1.32 µM) | MIC (Streptococcus Pneumonia 5979 (code ZZ)): > 64 µg/mL | MIC (Streptococcus Pneumonia ATCC6303 (code XX)): 0.03 µg/mL (≈ 0.0395 µM) | MIC (Streptococcus Pneumonia GYR 1171 (code YY)): 0.03 µg/mL (≈ 0.0395 µM) | MIC (Streptococcus agalactiae CMX 508 (code KK)): ≤ 0.005 µg/mL | MIC (Streptococcus bovis A-5169 (code JJ)): ≤ 0.005 µg/mL | MIC (Streptococcus pyogenes 930 (code MM)): 25 µg/mL (≈ 32.9 µM) | MIC (Streptococcus pyogenes EES61 (code LL)): 0.01 µg/mL (≈ 0.0132 µM) | MIC (Streptococcus pyogenes PIU 2548 (code NN)): 0.1 µg/mL (≈ 0.132 µM)

CCC1OC(=O)C(C)C(=O)C(C)C(OC2OC(C)CC(N(C)C)C2O)C(C)(OCC=Cc2cnc3ccc(C(=O)OC)cc3c2)CC(C)C(=O)C(C)C2NC(=O)OC12C (stereo not drawn) [Example 216, R is —CH2CH═CH-(6-methoxycarbonyl-3-quinolyl)]
MIC (organism code AA): 0.2 µg/mL (≈ 0.243 µM) | MIC (organism code BB): 0.2 µg/mL (≈ 0.243 µM) | MIC (organism code CC): > 100 µg/mL | MIC (organism code DD): 0.2 µg/mL (≈ 0.243 µM) | MIC (organism code EE): 0.2 µg/mL (≈ 0.243 µM) | MIC (organism code FF): 0.2 µg/mL (≈ 0.243 µM) | MIC (organism code GG): > 100 µg/mL | MIC (organism code HH): 0.2 µg/mL (≈ 0.243 µM) | MIC (organism code II): 0.05 µg/mL (≈ 0.0607 µM) | MIC (organism code JJ): 0.01 µg/mL (≈ 0.0121 µM) | MIC (organism code KK): 0.02 µg/mL (≈ 0.0243 µM) | MIC (organism code LL): 0.02 µg/mL (≈ 0.0243 µM) | MIC (organism code MM): 0.78 µg/mL (≈ 0.947 µM) | MIC (organism code NN): 0.2 µg/mL (≈ 0.243 µM) | MIC (organism code OO): 0.05 µg/mL (≈ 0.0607 µM) | MIC (organism code PP): 0.1 µg/mL (≈ 0.121 µM) | MIC (organism code QQ): 100 µg/mL (≈ 121 µM) | MIC (organism code RR): 0.39 µg/mL (≈ 0.473 µM) | MIC (organism code SS): > 100 µg/mL | MIC (organism code TT): > 100 µg/mL | MIC (organism code UU): 0.78 µg/mL (≈ 0.947 µM) | MIC (organism code VV): 0.1 µg/mL (≈ 0.121 µM) | MIC (organism code WW): 2 µg/mL (≈ 2.43 µM) | MIC (organism code XX): 0.015 µg/mL (≈ 0.0182 µM) | MIC (organism code YY): 0.015 µg/mL (≈ 0.0182 µM) | MIC (organism code ZZ): 0.5 µg/mL (≈ 0.607 µM) | MIC (organism code ZZA): 0.25 µg/mL (≈ 0.303 µM)

CCC1OC(=O)C(C)C(=O)C(C)C(OC2OC(C)CC(N(C)C)C2O)C(C)(OCC=Cc2ccc(-c3ccon3)s2)CC(C)C(=O)C(C)C2NC(=O)OC12C (stereo not drawn) [Example 292, Compound of Formula (IX): L is CO, T is NH, R is —CH2CH═CH-(5-(3-ixoxazolyl)-2-thiophenyl)]
MIC (organism code AA): 0.1 µg/mL | MIC (organism code BB): 0.1 µg/mL | MIC (organism code CC): > 100 µg/mL | MIC (organism code DD): 0.1 µg/mL | MIC (organism code EE): 0.1 µg/mL | MIC (organism code FF): 0.1 µg/mL | MIC (organism code GG): > 100 µg/mL | MIC (organism code HH): 0.05 µg/mL | MIC (organism code II): 0.02 µg/mL | MIC (organism code JJ): ≤ 0.005 µg/mL | MIC (organism code KK): 0.02 µg/mL | MIC (organism code LL): 0.01 µg/mL | MIC (organism code MM): 12.5 µg/mL | MIC (organism code NN): 0.05 µg/mL | MIC (organism code OO): 0.02 µg/mL | MIC (organism code PP): 0.1 µg/mL | MIC (organism code QQ): 50 µg/mL | MIC (organism code RR): 0.2 µg/mL | MIC (organism code SS): 100 µg/mL | MIC (organism code TT): > 100 µg/mL | MIC (organism code UU): 0.78 µg/mL | MIC (organism code VV): 0.02 µg/mL | MIC (organism code WW): 2 µg/mL | MIC (organism code XX): 0.03 µg/mL | MIC (organism code YY): 0.03 µg/mL | MIC (organism code ZZ): 16 µg/mL | MIC (organism code ZZA): 0.25 µg/mL

CCC1OC(=O)C(C)C(=O)C(C)C(OC2OC(C)CC(N(C)C)C2O)C(C)(OCC=Cc2ccc3cccnc3c2)CC(C)C(=O)C(C)C2NC(=O)OC12C (stereo not drawn) [Example 278, Compound of Formula (IX): L is CO, T is NH2, R is —CH2CH═CH-(7-quinolyl)]
MIC (organism code AA): 0.05 µg/mL | MIC (organism code BB): 0.05 µg/mL | MIC (organism code CC): > 100 µg/mL | MIC (organism code DD): 0.05 µg/mL | MIC (organism code EE): 0.05 µg/mL | MIC (organism code FF): 0.05 µg/mL | MIC (organism code GG): > 100 µg/mL | MIC (organism code HH): 0.1 µg/mL | MIC (organism code II): 0.05 µg/mL | MIC (organism code JJ): 0.01 µg/mL | MIC (organism code KK): 0.01 µg/mL | MIC (organism code LL): ≤ 0.005 µg/mL | MIC (organism code MM): 1.56 µg/mL | MIC (organism code NN): 0.2 µg/mL | MIC (organism code OO): 0.01 µg/mL | MIC (organism code PP): 0.1 µg/mL | MIC (organism code QQ): 25 µg/mL | MIC (organism code RR): 0.39 µg/mL | MIC (organism code SS): 12.5 µg/mL | MIC (organism code TT): > 100 µg/mL | MIC (organism code UU): 0.78 µg/mL | MIC (organism code VV): 0.02 µg/mL | MIC (organism code WW): 4 µg/mL | MIC (organism code XX): 0.03 µg/mL | MIC (organism code YY): 0.03 µg/mL | MIC (organism code ZZ): 128 µg/mL | MIC (organism code ZZA): 0.5 µg/mL
